Measurements published in US20180035670A1, “ACTIVE COMPOUND COMBINATIONS” (BAYER CROPSCIENCE AKTIENGESELLSCHAFT, priority 2015, published 2018).
Several values for one entry are separate records, joined by “and”; a condition that tells them apart may be missing. Equal values may be shown once. Read-outs that look alike come from different tables or passages of the source.

Key:
Venturia inaequalis = experiment: in vivo preventive test on Venturia test (apples); details: for pest or weed control at 0.5 ppm: read-out: Efficacy in % found, 0.5 ppm a.i., apples, 10 days after inoculation; for pest or weed control at 2 ppm: read-out: Efficacy in % found, 2 ppm a.i., apples, 10 days after inoculation; for pest or weed control at 0.25 ppm: read-out: Efficacy in % found, 0.25 ppm a.i., apples, 10 days after inoculation; for pest or weed control at 1 ppm: read-out: Efficacy in % found, 1 ppm a.i., apples, 10 days after inoculation; for pest or weed control at 10 ppm: read-out: Efficacy in % found, 10 ppm a.i., apples, 10 days after inoculation; for Efficacy in % found: apples, 10 days after inoculation
Description: After the spray coating has dried on, the plants are inoculated with an aqueous conidia suspension of the causal agent of apple scab (Venturia inaequalis) and then remain for 1 day in an incubation cabinet at approximately 20° C. and a relative atmospheric humidity of 100%. The plants are then placed in a greenhouse at approximately 21° C. and a relative atmospheric humidity of approximately 90%.
The test is evaluated 10 days after the inoculation.

Phytophthora infestans = format: in vivo; details: tomatoes, 3 days after inoculation
Botrytis cinerea = experiment: in vivo preventive test on Botrytis test (beans); details: 2 days after inoculation
Description: After the spray coating has dried on, 2 small pieces of agar covered with growth of Botrytis cinerea are placed on each leaf.
The inoculated plants are placed in a darkened chamber at 20° C. and a relative atmospheric humidity of 100%.
2 days after the inoculation, the size of the lesions on the leaves is evaluated.

Alternaria solani = experiment: in vivo preventive test on Alternaria test (tomatoes); details: 3 days after inoculation
Description: After the spray coating has dried on, the plants are inoculated with an aqueous spore suspension of Alternaria solani. The plants are then placed in an incubation cabinet at approximately 20° C. and a relative atmospheric humidity of 100%.
The test is evaluated 3 days after the inoculation.

Phakopsora pachyrhizi = experiment: in vivo preventive test on Phakopsora test (soybeans); details: 7 days after inoculation; for pest or weed control at 0.25 ppm: 0.25 ppm a.i.; for pest or weed control at 0.5 ppm: 0.5 ppm a.i.; for pest or weed control at 1 ppm: 1 ppm a.i.
Sphaerotheca fuliginea = experiment: in vivo preventive test on Sphaerotheca test (cucumbers); details: 7 days after inoculation
Description: After the spray coating has dried on, the plants are inoculated with an aqueous spore suspension of Sphaerotheca fuliginea. The plants are then placed in a greenhouse at approximately 23° C. and a relative atmospheric humidity of approximately 70%.
The test is evaluated 7 days after the inoculation.

[1] = Phakopsora pachyrhizi, 168 h, read-out: Efficacy in % found

CCC[C@@H]1CC(C)(C)c2cccc(NC(=O)c3cccnc3C(F)F)c21 [(I-6), 2-(difluoromethyl)-N-[(3R)-1,1-dimethyl-3-propyl-2,3-dihydro-1H-inden-4-yl]nicotinamide]
pest or weed control at 0.5 ppm (Venturia inaequalis; Venturia inaequalis, 240 h): 0% | pest or weed control at 2 ppm (Venturia inaequalis; Venturia inaequalis, 240 h): 15% | Efficacy in % found (Phytophthora infestans; 5 ppm a.i.): 21% | Efficacy in % found (Phytophthora infestans; 10 ppm a.i.): 14% | Efficacy in % found (Phytophthora infestans; 20 ppm a.i.): 8% | Efficacy in % found (Botrytis cinerea; 0.25 ppm a.i.): 15% | Efficacy in % found (Botrytis cinerea; 0.5 ppm a.i.): 0% | Efficacy in % found (Botrytis cinerea; 1 ppm a.i.): 19% and 11% | Efficacy in % found (Alternaria solani; 0.25 ppm a.i.): 0% | Efficacy in % found (Alternaria solani; 0.5 ppm a.i.): 0% | Efficacy in % found (Alternaria solani; 1 ppm a.i.): 8% and 15% | Efficacy in % found (Alternaria solani; 2 ppm a.i.): 51% | pest or weed control at 0.25 ppm (Phakopsora pachyrhizi; [1]): 75%

CC[C@@H]1CC(C)(C)c2cccc(NC(=O)c3cccnc3C(F)F)c21 [(I-4), 2-(difluoromethyl)-N-[(3R)-3-ethyl-1,1-dimethyl-2,3-dihydro-1H-inden-4-yl]nicotinamide]
pest or weed control at 0.25 ppm (Venturia inaequalis; Venturia inaequalis, 240 h): 15% | Efficacy in % found (Phytophthora infestans; 10 ppm a.i.): 10% | Efficacy in % found (Phytophthora infestans; 20 ppm a.i.): 7% | Efficacy in % found (Botrytis cinerea; 0.25 ppm a.i.): 0% | Efficacy in % found (Botrytis cinerea; 0.5 ppm a.i.): 8% | Efficacy in % found (Alternaria solani; 0.25 ppm a.i.): 8% | Efficacy in % found (Alternaria solani; 0.5 ppm a.i.): 40% | Efficacy in % found (Alternaria solani; 1 ppm a.i.): 30% and 55% | Efficacy in % found (Alternaria solani; 2 ppm a.i.): 35% | pest or weed control at 0.25 ppm (Phakopsora pachyrhizi; [1]): 65% | pest or weed control at 0.5 ppm (Phakopsora pachyrhizi; [1]): 85%

CCC1CC(C)(C)c2cccc(NC(=O)c3cccnc3C(F)F)c21 (centres unmarked) [(I-3), 2-(difluoromethyl)-N-(3-ethyl-1,1-dimethyl-2,3-dihydro-1H-inden-4-yl)nicotinamide]
Efficacy in % found (Sphaerotheca fuliginea; 0.5 ppm a.i.): 0% | Efficacy in % found (Sphaerotheca fuliginea; 1 ppm a.i.): 0% | pest or weed control at 0.25 ppm (Venturia inaequalis; Venturia inaequalis, 240 h): 4% | pest or weed control at 0.5 ppm (Venturia inaequalis; Venturia inaequalis, 240 h): 18% | pest or weed control at 2 ppm (Venturia inaequalis; Venturia inaequalis, 240 h): 11% | Efficacy in % found (Phytophthora infestans; 5 ppm a.i.): 28% | Efficacy in % found (Phytophthora infestans; 20 ppm a.i.): 4% | Efficacy in % found (Botrytis cinerea; 1 ppm a.i.): 15% | Efficacy in % found (Botrytis cinerea; 2 ppm a.i.): 23% | Efficacy in % found (Alternaria solani; 0.25 ppm a.i.): 15% | Efficacy in % found (Alternaria solani; 0.5 ppm a.i.): 23% | Efficacy in % found (Alternaria solani; 1 ppm a.i.): 40% | Efficacy in % found (Alternaria solani; 2 ppm a.i.): 35% | pest or weed control at 0.5 ppm (Phakopsora pachyrhizi; [1]): 65% | pest or weed control at 1 ppm (Phakopsora pachyrhizi; [1]): 84%

O[C@@H](c1cccnc1)c1c(-c2ccc(Cl)cc2F)noc1-c1ccc(F)cc1F [1.104, (S)-[3-(4-chloro-2-fluorophenyl)-5-(2,4-difluorophenyl)-1,2-oxazol-4-yl](pyridin-3-yl)methanol]
Efficacy in % found (Sphaerotheca fuliginea; 0.25 ppm a.i.): 0% | Efficacy in % found (Sphaerotheca fuliginea; 1 ppm a.i.): 0% | pest or weed control at 0.25 ppm (Venturia inaequalis; Venturia inaequalis, 240 h): 0% | pest or weed control at 0.5 ppm (Venturia inaequalis; Venturia inaequalis, 240 h): 11% | pest or weed control at 1 ppm (Venturia inaequalis; Venturia inaequalis, 240 h): 19% | Efficacy in % found (Botrytis cinerea; 0.5 ppm a.i.): 15% | Efficacy in % found (Botrytis cinerea; 1 ppm a.i.): 26% | Efficacy in % found (Alternaria solani; 0.25 ppm a.i.): 0% | Efficacy in % found (Alternaria solani; 0.5 ppm a.i.): 0% | Efficacy in % found (Alternaria solani; 1 ppm a.i.): 0% | pest or weed control at 0.25 ppm (Phakopsora pachyrhizi; [1]): 0% | pest or weed control at 1 ppm (Phakopsora pachyrhizi; [1]): 0%

CCCC1CC(C)(C)c2cccc(NC(=O)c3cccnc3C(F)F)c21 (centres unmarked) [(I-5), 2-(difluoromethyl)-N-(1,1-dimethyl-3-propyl-2,3-dihydro-1H-inden-4-yl)nicotinamide]
pest or weed control at 0.25 ppm (Venturia inaequalis; Venturia inaequalis, 240 h): 8% | pest or weed control at 0.5 ppm (Venturia inaequalis; Venturia inaequalis, 240 h): 0% | pest or weed control at 2 ppm (Venturia inaequalis; Venturia inaequalis, 240 h): 0% | Efficacy in % found (Phytophthora infestans; 5 ppm a.i.): 17% | Efficacy in % found (Phytophthora infestans; 10 ppm a.i.): 0% | Efficacy in % found (Phytophthora infestans; 20 ppm a.i.): 4% | Efficacy in % found (Botrytis cinerea; 0.25 ppm a.i.): 0% | Efficacy in % found (Botrytis cinerea; 0.5 ppm a.i.): 0% | Efficacy in % found (Alternaria solani; 1 ppm a.i.): 0% | Efficacy in % found (Alternaria solani; 2 ppm a.i.): 8% | pest or weed control at 0.25 ppm (Phakopsora pachyrhizi; [1]): 60%

O=[N+]([O-])c1cc(C(F)(F)F)c(Cl)c([N+](=O)[O-])c1Nc1ncc(C(F)(F)F)cc1Cl [14.004, fluazinam, reference compound]
pest or weed control at 10 ppm (Venturia inaequalis; Venturia inaequalis, 240 h): 0% | Efficacy in % found (Phytophthora infestans; 10 ppm a.i.): 45% | Efficacy in % found (Phytophthora infestans; 20 ppm a.i.): 28% | Efficacy in % found (Botrytis cinerea; 5 ppm a.i.): 63% | Efficacy in % found (Alternaria solani; 10 ppm a.i.): 0% | pest or weed control at 5 ppm (Phakopsora pachyrhizi; Phakopsora pachyrhizi, 168 h, 5 ppm a.i., read-out: Efficacy in % found): 0%

mancozeb [5.023, reference compound]
Efficacy in % found (Venturia inaequalis; 25 ppm a.i.): 31% | Efficacy in % found (Venturia inaequalis; 50 ppm a.i.): 34% | Efficacy in % found (Botrytis cinerea; 25 ppm a.i.): 0% | Efficacy in % found (Botrytis cinerea; 50 ppm a.i.): 0% | Efficacy in % found (Alternaria solani; 50 ppm a.i.): 0% | Efficacy in % found (Phakopsora pachyrhizi; 6.25 ppm a.i.): 24% | Efficacy in % found (Phakopsora pachyrhizi; 12.5 ppm a.i.): 41%

COC(=O)Nc1nc2ccccc2[nH]1 [4.002, carbendazim, reference compound]
pest or weed control at 5 ppm (Venturia inaequalis; Venturia inaequalis, 240 h, read-out: Efficacy in % found, 5 ppm a.i., apples, 10 days after inoculation): 8% | pest or weed control at 10 ppm (Venturia inaequalis; Venturia inaequalis, 240 h): 21% | Efficacy in % found (Botrytis cinerea; 5 ppm a.i.): 0% | Efficacy in % found (Alternaria solani; 10 ppm a.i.): 0% | pest or weed control at 1.25 ppm (Phakopsora pachyrhizi; Phakopsora pachyrhizi, 168 h, 1.25 ppm a.i., read-out: Efficacy in % found): 0% | pest or weed control at 2.5 ppm (Phakopsora pachyrhizi; Phakopsora pachyrhizi, 168 h, 2.5 ppm a.i., read-out: Efficacy in % found): 0%

N#Cc1c(Cl)c(Cl)c(Cl)c(C#N)c1Cl [5.004, chlorothalonil, reference compound]
pest or weed control at 25 ppm (Venturia inaequalis; Venturia inaequalis, 240 h, read-out: Efficacy in % found, 25 ppm a.i., apples, 10 days after inoculation): 36% | Efficacy in % found (Alternaria solani; 50 ppm a.i.): 0% | pest or weed control at 6.25 ppm (Phakopsora pachyrhizi; Phakopsora pachyrhizi, 168 h, 6.25 ppm a.i., read-out: Efficacy in % found): 18% | pest or weed control at 12.5 ppm (Phakopsora pachyrhizi; Phakopsora pachyrhizi, 168 h, 12.5 ppm a.i., read-out: Efficacy in % found): 0%

CC(O)(Cn1cncn1)c1ccc(Oc2ccc(Cl)cc2)cc1C(F)(F)F (centres unmarked) [1.084, 2-[4-(4-chlorophenoxy)-2-(trifluoromethyl)phenyl]-1-(1H-1,2,4-triazol-1-yl)propan-2-ol]
Efficacy in % found (Sphaerotheca fuliginea; 0.5 ppm a.i.): 0% | pest or weed control at 0.25 ppm (Venturia inaequalis; Venturia inaequalis, 240 h): 11% | pest or weed control at 0.5 ppm (Venturia inaequalis; Venturia inaequalis, 240 h): 34% | pest or weed control at 1 ppm (Venturia inaequalis; Venturia inaequalis, 240 h): 31% | Efficacy in % found (Alternaria solani; 0.25 ppm a.i.): 8% | Efficacy in % found (Alternaria solani; 0.5 ppm a.i.): 8% and 0% | Efficacy in % found (Alternaria solani; 1 ppm a.i.): 15% | pest or weed control at 0.5 ppm (Phakopsora pachyrhizi; [1]): 8% | pest or weed control at 1 ppm (Phakopsora pachyrhizi; [1]): 0%

CC1(C)N=C(c2cnc3ccccc3c2)c2ccccc2C1(F)F [15.090, 3-(4,4-difluoro-3,3-dimethyl-3,4-dihydroisoquinolin-1-yl)quinoline]
pest or weed control at 0.25 ppm (Venturia inaequalis; Venturia inaequalis, 240 h): 19% | Efficacy in % found (Botrytis cinerea; 0.25 ppm a.i.): 0% | Efficacy in % found (Botrytis cinerea; 0.5 ppm a.i.): 0% | Efficacy in % found (Botrytis cinerea; 1 ppm a.i.): 28% | pest or weed control at 0.25 ppm (Phakopsora pachyrhizi; [1]): 0% | pest or weed control at 0.5 ppm (Phakopsora pachyrhizi; [1]): 0% | pest or weed control at 1 ppm (Phakopsora pachyrhizi; [1]): 0%

propineb [5.029, reference compound]
Efficacy in % found (Venturia inaequalis; 12.5 ppm a.i.): 11% | Efficacy in % found (Venturia inaequalis; 25 ppm a.i.): 94% | Efficacy in % found (Botrytis cinerea; 25 ppm a.i.): 0% | Efficacy in % found (Alternaria solani; 50 ppm a.i.): 0% | Efficacy in % found (Phakopsora pachyrhizi; 6.25 ppm a.i.): 0% | Efficacy in % found (Phakopsora pachyrhizi; 12.5 ppm a.i.): 0%
